In patent publication US10124035B2, “DISC-1 pathway activators in the control of neurogenesis” (Massachusetts Institute of Technology, priority 2008, dated 2018):
Entries after “also recorded” stand apart in the source; their conditions may differ.

Experiments:
[1] = test system: adult progenitor proliferation in dentate gyrus; test: Adult progenitor proliferation in dentate gyrus (BrdU) after lentivirus injection; type: in vivo
Description: Cell positioning and BrdU incorporation defects caused by DISC1 loss-of-function are rescued by human WT-DISC1 or SA-β-catenin. The percentage of GFP positive cells in the SVZ/VZ or CP is shown (n=5, **, p<0.01; ***, p<0.005). Scale bar=20 μm. b. The reduction in mitotic index caused by DISC1 knockdown in embryonic brains is rescued by human WT-DISC1 or SA-β-catenin. Arrows indicate GFP and pH3 double positive cells. Shown is the percentage of GFP and pH3 double positive cells in total GFP positive cells (n=4, *, p<0.05; ***, p<0.005). Scale bar=20 μm. c. Control or DISC1 shRNA-1 lentivirus was stereotactically injected into adult dentate gyms. After 4 weeks of recovery, mice received SB216763 (2 mg/kg) every other day for 2 weeks and BrdU (100 mg/kg) daily for 7 days. The GFP signal represents lentiviral infected cells in dentate gyms. Scale bar=50 μm. d. […] The percentage of GFP and BrdU double positive cells is shown (n=5, *, p<0.05; **, p<0.01; ***, p<0.005; ns, not significant). Scale bar=10 μm.
• Mice. Swiss Webster pregnant female mice were purchased from Taconic (Hudson, N.Y.). • Cell Culture. AHPs were kindly provided by Dr. Gage (Lie, D. C. et al. Wnt signaling to regulates adult hippocampal neurogenesis. Nature 437, 1370-5 (2005)) and cultured under conditions described previously (Palmer, T. D., Takahashi, J. & Gage, F. H. The adult rat hippocampus contains primordial neural stem cells. Mol Cell Neurosci 8, 389-404 (1997)). Primary neural progenitors were isolated from E14 mouse embryos and cultured as described previously (Sanada, K. & Tsai, L. H. G protein betagamma subunits and AGS3 control spindle orientation and asymmetric cell fate of cerebral cortical progenitors. Cell 122, 119-31 (2005)). N2a and 293T cells were cultured in DMEM medium containing 10% FBS, L-glutamine, and penicillin/streptomycin. Wnt3a expressing L cells and untransfected L cells were obtained from ATCC (Manassas, Va.). Wnt3a conditional medium was produced according to the ATCC protocol. To induce AHP differentiation, FGF2 was removed from the culture medium and 1 μM retinoic acid/1% FBS was added to the medium for 4 days. • Reagents. Recombinant Wnt3a protein was obtained from Chemicon (Rosemont, Ill.). FGF2 was obtained from PeproTech (Rocky Hill, N.J.). Recombinant GST-GSK3β was obtained from Active Motif (Carlsbad, Calif.). Recombinant GST-β-catenin and GST-axin were obtained from Millipore (Billerica, Mass.). The GSK313 inhibitor, SB-216763, AR-A104418 and His-GSK3β, were obtained from Sigma-Aldrich (Sigma-Aldrich, St. Louis, Mo.). L803-MTS was obtained from Calbiochem (San Diego, Calif.). GST-AKT1 was obtained from Cell Signaling (Beverly, Mass.). […]

[2] = test system: DISC1 shRNA injected mice; test: Open Field test (hyperlocomotion in response to novelty); type: in vivo, mouse; settings: for hyperlocomotion/hyperactivity in novel open field: DISC1 shRNA injected mice, SB-216763 2 mg/kg i.p.
Description: (§1) Behavioral abnormalities in DISC1 knockdown mice. a. DISC1 knockdown in adult dentate gyms caused increased hyperactivity in the Open Field Test. b and c. DISC1 knockdown in adult dentate gyms caused depressive-like behavior in the Forced Swimming test and the Novelty Suppression Feeding experiment. b. Forced Swimming Test Mice were put in the beaker with water for 6 minutes and counted the last 4 minutes for the time of immobility. c. Novelty Suppression Feeding Test. Mice were restricted with food for 48 hours and tested for the motivation to eat food. Mice were tested the latency for first bite, the time they spent on food, and the time they ate during 5 minutes. d. […] Mice were injected and allowed to recover for 2 weeks, then treated with the GDK3beta inhibitor SB216763 at 2 mg/kg/day for two weeks, after that the behavioral test was performed.
Alterations in neurogenesis are implicated in the development of depression and other abnormal behaviors. To examine the behavioral consequences of disrupting the DICS1/GSK3β pathway, we silenced DISC1 expression in the adult dentate gyms and evaluated behavioral consequences. Four weeks after the injection of control or DISC1 shRNA-1 lentivirus, mice were treated with vehicle or SB-216763 (2 mg/kg i.p.) every other day for 10 days. […] DISC1 shRNA injected mice traveled a greater distance and spent more time moving in a novel open field than control mice (FIG. 17A). These behaviors were normalized by SB-216763 treatment. We further tested whether DISC1 loss-of-function had consequences on depression-like behavior in the forced swim test. […] Importantly, swimming velocity was unchanged. […] Thus, increased GSK3β activity caused by DISC1 loss-of-function is associated with schizophrenia- and depression-like behaviors.

[3] = test system: DISC1 shRNA infected mice; test: Forced swim test; type: in vivo, mouse
Description: as §1
Alterations in neurogenesis are implicated in the development of depression and other abnormal behaviors. To examine the behavioral consequences of disrupting the DICS1/GSK3β pathway, we silenced DISC1 expression in the adult dentate gyms and evaluated behavioral consequences. Four weeks after the injection of control or DISC1 shRNA-1 lentivirus, mice were treated with vehicle or SB-216763 (2 mg/kg i.p.) every other day for 10 days. […]

[4] = lentivirus in adult dentate gyrus, compared to control mice

| Compound | BrdU positive cells in dentate gyrus ([1]; DISC1 shRNA-1 infected mice, SB216763 2 mg/kg for 2 weeks, 2 mg/kg) | number of BrdU positive cells in dentate gyrus ([1]; mice infected with control virus, SB216763 2 mg/kg for 2 weeks) | hyperlocomotion/hyperactivity in novel open field ([2]; 2 mg/kg) | hyperlocomotion/hyperactivity in novel open field ([2]; listed as SB216763, 2 mg/kg) | immobility in forced swim test ([3]; DISC1 shRNA infected mice, SB-216763 2 mg/kg i.p.) | active caspase 3 labeling in GFP positive cells in the dentate gyrus ([1]; lentivirus injected adult mice) | BrdU incorporation in adult dentate gyrus ([1]; lentivirus injected, compared to control shRNA cells) | locomotion in novel open field [2, 4] | immobility in forced swim test [3, 4] |
| --- | --- | --- | --- | --- | --- | --- | --- | --- | --- |
| Cn1cc(C2=C(c3ccc(Cl)cc3Cl)C(=O)NC2=O)c2ccccc21 [SB-216763] | no longer exhibited a reduction in BrdU positive cells; also recorded: can be rescued | significantly increased the number of BrdU positive cells | normalized | can be rescued | suppressed |  |  |  |  |
| DISC1 shRNA-1: shRNA targeting rat and mouse DISC1, SEQ ID NO:4, in pLentiLox 3.7 vector (GGCAAACACTGTGAAGTGC) |  |  |  |  |  | no increase in active caspase 3 labeling | significant reduction in BrdU incorporation | hyperlocomotion in response to novelty | greater immobility |
